The assay concerns IL-1β production in PMA-differentiated THP-1 cells. As to the kind of experiment: IL-1β production in PMA-differentiated THP-1 cells stimulated with gramicidin (hTHP-1 assay, 2% fetal bovine serum). It is filed as cell-based. The following applies: Homo sapiens, hTHP-1 assay containing 2% fetal bovine serum. The method, then:
THP-1 cells were purchased from the American Type Culture Collection and sub-cultured according to instructions from the supplier. Cells were cultured in complete RPMI 1640 (containing 10% heat inactivated FBS, penicillin (100 units/ml) and streptomycin (100 μg/ml)), and maintained in log phase prior to experimental setup. Prior to the experiment, compounds were dissolved in dimethyl sulfoxide (DMSO) to generate a 30 mM stock. The compound stock was first pre-diluted in DMSO to 3, 0.34, 0.042 and 0.0083 mM intermediate concentrations and subsequently spotted using Echo550 liquid handler into an empty 384-well assay plate to achieve desired final concentration (e.g. 100, 33, 11, 3.7, 1.2, 0.41, 0.14, 0.046, 0.015, 0.0051, 0.0017 μM). DMSO was backfilled in the plate to achieve a final DMSO assay concentration of 0.37%. The plate was then sealed and stored at room temperature until required.
THP-1 cells were treated with PMA (Phorbol 12-myristate 13-acetate) (20 ng/ml) for 16-18 hours. On the day of the experiment the media was removed and adherent cells were detached with trypsin for 5 minutes. Cells were then harvested, washed with complete RPMI 1640, spun down, and resuspended in RPMI 1640 (containing 2% heat inactivated FBS, penicillin (100 units/ml) and streptomycin (100 μg/ml). The cells were plated in the 384-well assay plate containing the spotted compounds at a density of 50,000 cells/well (final assay volume 50 μl). Cells were incubated with compounds for 1 hour and then stimulated with gramicidin (5 μM) (Enzo) for 2 hours. Plates were then centrifuged at 340 g for 5 min. Cell free supernatant (40 μL) was collected using a 96-channel PlateMaster (Gilson) and the production of IL-1β was evaluated by HTRF (cisbio). The plates were incubated for 18 h at 4° C. and read using the preset HTRF program (donor emission at 620 nm, acceptor emission at 668 nm) of the SpectraMax i3x spectrophotometer (Molecular Devices, software SoftMax 6). A vehicle only control and a dose titration of CRID3 (100-0.0017 μM) were run concurrently with each experiment. […]

Consider two molecules from patent US20250082611A1, “DOSING REGIMEN FOR AN NLRP3 INHIBITOR IN THE TREATMENT OF OSTEOARTHRITIS” (Novartis AG, priority 2021, published 2025).

As to `CC(C)(O)c1ncc(S(N)(=O)=NC(=O)Nc2c3c(cc4c2CCC4)CCC3)s1` (centres unmarked) [Compound I, N′-(1,2,3,5,6,7-hexahydro-s-indacen-4-ylcarbamoyl)-2-(2-hydroxypropan-2-yl) thiazole-5-sulfonimidamide], the IC50 is 40 to 200 nM.

As to `CC(C)(O)c1ncc([S@@](N)(=O)=NC(=O)Nc2c3c(cc4c2CCC4)CCC3)s1` [Compound IB, (S)-N′-((1,2,3,5,6,7-hexahydro-s-indacen-4-yl)carbamoyl)-2-(2-hydroxypropan-2-yl) thiazole-5-sulfonimidamide], the IC50 was in the range of 200 to 1000 nM.

For orientation: IC50 means the point on the concentration scale where inhibition reaches its midpoint.
